Laboratory results from patent publication US7365231B2, “Compound with antitumor activity and preparation method therefor” (National Taiwan University of Science & Technology, priority 2005, dated 2008).

What was measured:
[1] = test system: Colo 205 cells; assay: Reversibility of DPA-induced growth inhibition after drug withdrawal; assay type: cell-based, human
Experimental: To further investigate whether the DPA-induced growth inhibition was reversible, Colo 205 cells were treated with DPA for 72 hours, and the cells were withdrawn from DPA by culturing in fresh medium for another 48 or 72 hours. […] One possibility is that the relatively lipophilic nature of DPA or DPD reduced cellular efflux after the initial drug exposure. It is inferred that the irreversible property of adamantane and diamantane derivatives provides an advantage to prolong the anticancer activity.

[2] = test system: HT-29 cells; assay: Cell cycle analysis by flow cytometry; assay type: cell-based, human
Experimental: […] […] HT-29 cells were mainly in G0/G1 phase (84.1-86.0%), and only a few percent of cells in S phase (7.4-8.0%) after exposure to 4 μM DPA for 48-72 h. […] The G0/G1 arrest was not induced in the HCT-15 cells treated with 1-8 μM DPA for 24-72 h. […] DPA exerted the dose specific effect for the induced G0/G1 arrest on Colo 205 cells. […] In addition, we noted that DPA-mediated accumulation of Colo205 and HT 29 cells in G1 phase (>80%) was similar to that of DPD (Anti-Cancer Drug 2004; 15:277-80). It is likely that the induced G1-arrest without concomitant apoptosis on Colo 205 and HT 29 colon cancer cells is one unique property of structure I.

[3] = Toxicity, body weight and histology, DPA twice a week; assay type: in vivo, ICR nude mice

Nc1ccc(Oc2ccc(C3(c4ccc(Oc5ccc(N)c(O)c5)cc4)C4CC5CC(C4)CC3C5)cc2)cc1O [DPA, 2,2-bis(4-(4-amino-3-hydroxyphenoxy)phenyl)adamantane]
proliferation activity after removal of DPA ([1]; 1 μM DPA 72 h, then 48-72 hours in fresh medium): reversed and returned to control level | reversal of growth inhibition after removal of DPA ([1]; 2, 4 or 8 μM DPA 72 h, then 48-72 hours in fresh medium): no reversal effect | cell viability ([1]; haemocytometer, treated cells except 8 μM DPA): > 90% | G0/G1 cell-cycle arrest and apoptosis ([2]; HT 29): G0/G1 cell-cycle arrest without concomitant apoptosis | accumulation of cells in G1 phase ([2]; HT 29): > 80% | cells in G0/G1 phase ([2]; HT-29, 4 μM DPA for 48-72 h): 84.1-86.0% | cells in S phase ([2]; HT-29, 4 μM DPA for 48-72 h): 7.4-8.0% | G0/G1(%) ([2]; HT-29, DPA 1 μM, 24 h): 56.6% | G2/M(%) ([2]; HT-29, DPA 1 μM, 24 h): 10.3% | S(%) ([2]; HT-29, DPA 1 μM, 24 h): 33.1% | G0/G1(%) ([2]; HT-29, DPA 1 μM, 48 h): 61.6% | G2/M(%) ([2]; HT-29, DPA 1 μM, 48 h): 9.4% | S(%) ([2]; HT-29, DPA 1 μM, 48 h): 29.0% | G0/G1(%) ([2]; HT-29, DPA 1 μM, 72 h): 72.6% | G2/M(%) ([2]; HT-29, DPA 1 μM, 72 h): 7.3% | S(%) ([2]; HT-29, DPA 1 μM, 72 h): 20.1% | G0/G1(%) ([2]; HT-29, DPA 2 μM, 24 h): 67.0% | G2/M(%) ([2]; HT-29, DPA 2 μM, 24 h): 10.0% | S(%) ([2]; HT-29, DPA 2 μM, 24 h): 23.1% | G0/G1(%) ([2]; HT-29, DPA 2 μM, 48 h): 77.5% | G2/M(%) ([2]; HT-29, DPA 2 μM, 48 h): 4.7% | S(%) ([2]; HT-29, DPA 2 μM, 48 h): 17.8% | G0/G1(%) ([2]; HT-29, DPA 2 μM, 72 h): 67.3% | G2/M(%) ([2]; HT-29, DPA 2 μM, 72 h): 2.9% | S(%) ([2]; HT-29, DPA 2 μM, 72 h): 29.9% | G0/G1(%) ([2]; HT-29, DPA 4 μM, 24 h): 72.1% | G2/M(%) ([2]; HT-29, DPA 4 μM, 24 h): 10.9% | S(%) ([2]; HT-29, DPA 4 μM, 24 h): 17.1% | G0/G1(%) ([2]; HT-29, DPA 4 μM, 48 h): 84.1% | G2/M(%) ([2]; HT-29, DPA 4 μM, 48 h): 8.5% | S(%) ([2]; HT-29, DPA 4 μM, 48 h): 7.4% | G0/G1(%) ([2]; HT-29, DPA 4 μM, 72 h): 86.0% | G2/M(%) ([2]; HT-29, DPA 4 μM, 72 h): 6.1% | S(%) ([2]; HT-29, DPA 4 μM, 72 h): 8.0% | G0/G1(%) ([2]; HT-29, DPA 8 μM, 24 h): 77.0% | G2/M(%) ([2]; HT-29, DPA 8 μM, 24 h): 9.6% | S(%) ([2]; HT-29, DPA 8 μM, 24 h): 13.3% | G0/G1(%) ([2]; HT-29, DPA 8 μM, 48 h): 79.5% | G2/M(%) ([2]; HT-29, DPA 8 μM, 48 h): 10.0% | S(%) ([2]; HT-29, DPA 8 μM, 48 h): 10.6% | G0/G1(%) ([2]; HT-29, DPA 8 μM, 72 h): 86.3% | G2/M(%) ([2]; HT-29, DPA 8 μM, 72 h): 6.2% | S(%) ([2]; HT-29, DPA 8 μM, 72 h): 7.5% | acute toxicity ([3]; DPA 20~80 mg/kg, i.p., twice a week): no obviously acute toxicity | body weight ([3]; DPA-treated mice, twice a week): no significant reduction in body weight | tissue damage in liver, lung and kidney ([3]; tissue slices stained with haematoxylin and eosin): no tissue damage was observed
